Results reported in ChEMBL document CHEMBL2157974, “Viridin analogs derived from steroidal building blocks” (Bioorg Med Chem Lett, 2012).

Experiments:
MCF7 = assay: Cytotoxicity against human MCF7 cells after 72 hrs by MTS/PMS assay; type: functional, cell-based; settings: MCF7, 72 h
[1] = Inhibition of PI3K
[2] = Lipophilicity, log P of the compound; type: physicochemical; settings: octanol/water
[3] = target: PI3-kinase p110-alpha/p85-alpha (Homo sapiens, UniProt P42336); assay: Inhibition of human recombinant P110alpha/p85alpha using phosphatidyl inositol as substrate after 1 hr by ADP-Glo Kinase assay; type: protein-complex assay
PI3-kinase p110-alpha/p85-alpha, sequence (P27986 whole entry): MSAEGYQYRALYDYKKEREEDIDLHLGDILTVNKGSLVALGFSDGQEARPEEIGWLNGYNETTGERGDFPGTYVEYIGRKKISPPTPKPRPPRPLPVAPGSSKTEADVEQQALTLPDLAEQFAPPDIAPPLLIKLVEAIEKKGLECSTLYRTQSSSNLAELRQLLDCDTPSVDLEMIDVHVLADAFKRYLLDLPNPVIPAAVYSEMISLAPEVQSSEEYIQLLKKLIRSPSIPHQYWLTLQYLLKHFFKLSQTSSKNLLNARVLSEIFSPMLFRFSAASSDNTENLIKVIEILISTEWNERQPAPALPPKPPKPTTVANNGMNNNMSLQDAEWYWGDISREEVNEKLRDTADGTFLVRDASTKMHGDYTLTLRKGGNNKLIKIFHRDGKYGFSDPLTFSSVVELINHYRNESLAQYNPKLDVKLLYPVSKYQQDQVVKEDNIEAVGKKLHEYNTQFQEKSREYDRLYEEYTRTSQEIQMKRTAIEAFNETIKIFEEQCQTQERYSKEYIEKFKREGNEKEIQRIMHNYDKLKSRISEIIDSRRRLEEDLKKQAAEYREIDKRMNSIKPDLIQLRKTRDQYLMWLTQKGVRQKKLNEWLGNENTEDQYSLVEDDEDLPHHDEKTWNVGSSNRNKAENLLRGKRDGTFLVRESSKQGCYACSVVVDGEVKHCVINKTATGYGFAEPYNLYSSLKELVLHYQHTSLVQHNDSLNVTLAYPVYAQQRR
PI3-kinase p110-alpha/p85-alpha, sequence (P42336 whole entry): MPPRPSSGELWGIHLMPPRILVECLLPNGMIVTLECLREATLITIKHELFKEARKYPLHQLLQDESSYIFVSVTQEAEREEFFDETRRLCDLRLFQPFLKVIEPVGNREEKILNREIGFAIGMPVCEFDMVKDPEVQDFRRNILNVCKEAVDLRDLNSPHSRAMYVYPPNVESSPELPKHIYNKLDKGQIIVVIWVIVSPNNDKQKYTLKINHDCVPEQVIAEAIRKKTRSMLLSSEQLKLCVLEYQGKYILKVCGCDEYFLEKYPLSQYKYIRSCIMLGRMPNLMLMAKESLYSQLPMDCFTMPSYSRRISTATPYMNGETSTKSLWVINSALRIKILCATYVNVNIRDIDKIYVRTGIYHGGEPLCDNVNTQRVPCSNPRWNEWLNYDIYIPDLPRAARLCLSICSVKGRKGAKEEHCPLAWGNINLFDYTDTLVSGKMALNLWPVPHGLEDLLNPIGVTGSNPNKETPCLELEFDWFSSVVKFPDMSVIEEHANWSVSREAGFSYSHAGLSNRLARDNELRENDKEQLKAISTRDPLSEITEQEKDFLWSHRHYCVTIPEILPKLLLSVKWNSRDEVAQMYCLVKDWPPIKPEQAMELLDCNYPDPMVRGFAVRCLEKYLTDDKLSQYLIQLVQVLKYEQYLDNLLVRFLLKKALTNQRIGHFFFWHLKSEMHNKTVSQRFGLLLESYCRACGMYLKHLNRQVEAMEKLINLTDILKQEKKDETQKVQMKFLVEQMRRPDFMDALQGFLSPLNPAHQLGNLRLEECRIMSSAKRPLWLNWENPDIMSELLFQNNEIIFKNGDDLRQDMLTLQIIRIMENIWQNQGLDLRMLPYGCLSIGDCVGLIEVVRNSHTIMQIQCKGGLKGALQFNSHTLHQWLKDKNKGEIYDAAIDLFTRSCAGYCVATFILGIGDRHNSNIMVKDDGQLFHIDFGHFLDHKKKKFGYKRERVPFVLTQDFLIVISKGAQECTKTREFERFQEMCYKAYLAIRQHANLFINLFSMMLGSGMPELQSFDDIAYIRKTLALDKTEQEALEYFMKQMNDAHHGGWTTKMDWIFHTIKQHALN

Row | SMILES | IC50 (MCF7) [nM] | IC50 [1] [nM] | logP [2] | IC50 [3] [nM]
1 | COC[C@H]1OC(=O)c2coc3c2[C@@]1(C)C1=C(C3=O)[C@@H]2CCC(=O)[C@@]2(C)C[C@H]1OC(C)=O [WORTMANNIN] | > 100000 | 2 | – | –
2 | CO[C@@H]1C(=O)c2coc3c2[C@@](C)(c2ccc4c(c2C3=O)CCC4=O)[C@@H]1O [VIRIDIN] | – | 2 | – | –
3 | C[C@]12CCC(=O)c3coc(c31)C(=O)C[C@@H]2O (racemic) | > 100000 | – | 0.58 | 178
4 | C[C@]12CCC(=O)c3coc(c31)C(=O)[C@@H]1[C@@H]2CC[C@]2(C)C(=O)CC[C@@H]12 | 22900 | – | 2.65 | 339
5 | C=CCN/C=C1/C(=O)CC[C@@]2(C)C1=C(O)C(=O)[C@@H]1[C@@H]2CC[C@]2(C)C(=O)CC[C@@H]12 | 37700 | – | – | 271
